Source: ChEMBL document CHEMBL5346879, “Identification of a short ACE2-derived stapled peptide targeting the SARS-CoV-2 spike protein” (Eur J Med Chem, 2023)
Where a SMILES comes first, the peptide text is derived from it. Bridges are numbered along the chain shown (N, C = ends). [ ]: non-standard residue; d: D form. S5 = C=CCCC[C@](C)(N)C(=O)O

Tests used:
[1] = Stability in human plasma assessed as peptide degradation at 200 ug/ml incubated for 48 hrs by LC-MS/MS analysis; assay type: ADME, cell-free; details: at 200 µg/mL
[2] = biological target: Spike glycoprotein/Angiotensin-converting enzyme 2 (Severe acute respiratory syndrome coronavirus 2) (UniProt Q9BYF1+P0DTC2); experiment: Inhibition of SARS-CoV-2 spike protein RBD- human ACE2 interaction at 30 uM incubated for 1 hr by colorimetric ELISA assay relative to control
[3] = biological target: Spike glycoprotein/Angiotensin-converting enzyme 2 (Severe acute respiratory syndrome coronavirus 2, UniProt P0DTC2); experiment: Inhibition of SARS-CoV-2 spike protein RBD- human ACE2 interaction incubated for 1 hr by colorimetric ELISA assay

Molecule: H-HEAEDLFYQ-NH2
- Stability [1]: Stable

Molecule: CC(C)C[C@@H]1NC(=O)[C@H](CC(=O)O)NC(=O)[C@H](CCC(=O)O)NC(=O)[C@@](C)(NC(=O)[C@H](CCC(=O)O)NC(=O)[C@@H](N)Cc2c[nH]cn2)CCC/C=C\CCC[C@@](C)(C(=O)N[C@@H](Cc2ccc(O)cc2)C(=O)N[C@@H](CCC(N)=O)C(N)=O)NC1=O (H-HE[S5]EDL[S5]YQ-NH2; staple (Z) 3-7)
- inhibition [2]: 55%
- Stability [1]: Stable
- IC50 [3]: 21 µM
